EPA's CvTdb concentration-time database

Key:
[1] = test system: Rat; assay: concentration in plasma after dosing; conditions: dosed: Potassium Perfluorobutane Sulfonate, 4 mg/kg, iv, Male, F344
[2] = test system: Rat; assay: concentration in plasma after dosing; conditions: dosed: Potassium Perfluorobutane Sulfonate, 4 mg/kg, oral, Male, Harlan Sprague Dawley
[3] = test system: Rat; assay: concentration in plasma after dosing; conditions: 0.5 h; dosed: Potassium Perfluorobutane Sulfonate; 4 mg/kg; iv; Male; F344
[4] = test system: Rat; assay: concentration in plasma after dosing; conditions: 1 h; dosed: Potassium Perfluorobutane Sulfonate; 4 mg/kg; iv; Female; Harlan Sprague-Dawley
[5] = test system: Rat; assay: concentration in plasma after dosing; conditions: dosed: Potassium Perfluorobutane Sulfonate, 4 mg/kg, iv, Male, F344; remark: listed apart in the source
[6] = test system: Rat; assay: concentration in plasma after dosing; conditions: 1.5 h; dosed: Potassium Perfluorobutane Sulfonate; 4 mg/kg; iv; Male; F344
[7] = test system: Rat; assay: concentration in kidney after dosing; conditions: 192 h; dosed: Perfluorooctanoic acid; 12 mg/kg; oral; Male; Harlan Sprague Dawley
[8] = test system: Rat; assay: concentration in liver after dosing; conditions: 12 h; dosed: Fluorotelomer alcohol 8+2; 80 mg/kg; oral; Female; Harlan Sprague Dawley
[9] = test system: Rat; assay: concentration in liver after dosing; conditions: 3 h; dosed: Fluorotelomer alcohol 8+2; 80 mg/kg; oral; Female; Harlan Sprague Dawley
[10] = test system: Rat; assay: concentration in liver after dosing; conditions: 1 h; dosed: Fluorotelomer alcohol 8+2; 24 mg/kg; oral; Male; Harlan Sprague Dawley
[11] = test system: Rat; assay: concentration in liver after dosing; conditions: 1 h; dosed: Fluorotelomer alcohol 8+2; 80 mg/kg; oral; Female; Harlan Sprague Dawley
[12] = test system: Rat; assay: concentration in liver after dosing; conditions: 12 h; dosed: Fluorotelomer alcohol 8+2; 24 mg/kg; oral; Male; Harlan Sprague Dawley
[13] = test system: Rat; assay: concentration in kidney after dosing; conditions: 48 h; dosed: Perfluorooctanoic acid; 80 mg/kg; oral; Female; Harlan Sprague Dawley
[14] = test system: Rat; assay: concentration in kidney after dosing; conditions: 528 h; dosed: Perfluorooctanoic acid; 12 mg/kg; oral; Male; Harlan Sprague Dawley
[15] = test system: Rat; assay: concentration in liver after dosing; conditions: 6 h; dosed: Perfluorooctanoic acid; 12 mg/kg; oral; Male; Harlan Sprague Dawley
[16] = test system: Rat; assay: concentration in plasma after dosing; conditions: dosed: 678-39-7, 40 mg/kg, iv, Male, F344
[17] = test system: Rat; assay: concentration in kidney after dosing; conditions: 3 h; dosed: Fluorotelomer alcohol 8+2; 80 mg/kg; oral; Female; Harlan Sprague Dawley
[18] = test system: Rat; assay: concentration in plasma after dosing; conditions: dosed: 2-Hydroxy-4-methoxybenzophenone, 250 mg/kg, oral, Male, F344
[19] = test system: Rat; assay: concentration in plasma after dosing; conditions: dosed: 2-Hydroxy-4-methoxybenzophenone, 500 mg/kg, oral, Female, F344
[20] = test system: Rat; assay: concentration in plasma after dosing; conditions: dosed: 2-Hydroxy-4-methoxybenzophenone, 8 mg/kg, iv, Male, F344
[21] = test system: Mouse; assay: concentration in plasma after dosing; conditions: 3 h; dosed: 2-Hydroxy-4-methoxybenzophenone; 50 mg/kg; iv; Female; B6C3F1
[22] = test system: Rat; assay: concentration in plasma after dosing; conditions: dosed: 2-Hydroxy-4-methoxybenzophenone, 8 mg/kg, iv, Female, F344
[23] = test system: Rat; assay: concentration in plasma after dosing; conditions: dosed: Nitrite, 80 mg/kg, oral, Female, F344
[24] = test system: Rat; assay: concentration in plasma after dosing; conditions: dosed: Nitrite, 20 mg/kg, iv, Male, F344
[25] = test system: Rat; assay: concentration in plasma after dosing; conditions: 5 min; dosed: Nitrite; 40 mg/kg; oral; Female; F344
[26] = test system: Rat; assay: concentration in plasma after dosing; conditions: dosed: Nitrite, 80 mg/kg, oral, Female, F344; remark: listed apart in the source
[27] = test system: Rat; assay: concentration in plasma after dosing; conditions: 2 min; dosed: Nitrite; 80 mg/kg; oral; Female; F344
[28] = test system: Rat; assay: concentration in plasma after dosing; conditions: 5 min; dosed: Nitrite; 80 mg/kg; oral; Female; F344
[29] = test system: Rat; assay: concentration in plasma after dosing; conditions: 5 min; dosed: Nitrite; 80 mg/kg; oral; Female; F344; remark: listed apart in the source
[30] = test system: Rat; assay: concentration in plasma after dosing; conditions: 5 min; dosed: Nitrite; 80 mg/kg; oral; Female; F344; remark: listed apart in the source
[31] = test system: rat; assay: concentration in liver after dosing (ugEq/g tissue); conditions: dosed: benzo[a]pyrene, iv, male, Wistar

O=S(=O)([O-])C(F)(F)C(F)(F)C(F)(F)C(F)(F)F.[K+] [Potassium Perfluorobutane Sulfonate]
Conditions | concentration in plasma [ng/mL]
[1], 3 h | 429
[1], 5 min | 27500
[2], 0.75 h | 13400
[2], 12 h | 4960
[5], 0.5 h | 19100
[5], 12 h | 1620

Conditions | concentration in plasma [ng/mL]
[3] | 12000
[4] | 3410
[6] | 1850

O=C(O)C(F)(F)C(F)(F)C(F)(F)C(F)(F)C(F)(F)C(F)(F)C(F)(F)F [Perfluorooctanoic acid]
Conditions | concentration in kidney [ng/g] | concentration in liver [ng/g]
[7] | 21000 | –
[8] | – | 498
[9] | – | 2170
[10] | – | 676
[11] | – | 727
[12] | – | 1350
[13] | 703 | –
[14] | 6860 | –
[15] | – | 63400
[17] | 2010 | –

[16]
Conditions | concentration in plasma [ng/mL]
0.5 h | 1400
9 h | 716

COc1ccc(C(=O)c2ccccc2)c(O)c1 [2-Hydroxy-4-methoxybenzophenone]
Conditions | concentration in plasma [ng/mL]
[18], 0.25 h | 318
[18], 4 h | 48.1
[19], 10 h | 31.5
[19], 10 min | 935
[20], 0.25 h | 2370
[20], 2 h | 113
[22], 2 h | 111
[22], 10 min | 2560

Conditions | concentration in plasma [ng/mL]
[21] | 149

O=N[O-] [Nitrite]
concentration in plasma [ng/mL]
Conditions | 1 h | 1.5 h | 2 h | 20 min
[23] | 11200 | – | 12200 | –
[24] | – | 2000 | – | 2600
[26] | 21600 | – | 13000 | –

Conditions | concentration in plasma [ng/mL]
[25] | 9500
[27] | 2900
[28] | 18700
[29] | 8200
[30] | 7300

c1ccc2c(c1)cc1ccc3cccc4ccc2c1c34 [benzo[a]pyrene]
concentration in liver, [31]
Conditions | 2 mg/kg | 6 mg/kg | 15 mg/kg
0.5 h | 2.43 | 11.4 | 15.2
0.75 h | 1.34 | 11.1 | 13.1
1 h | 0.34 | 5.54 | 4.86
1.5 h | 0.91 | 1.32 | 8.51
2 h | 0.01 | 0.55 | 3.39
3 h | – | 0.15 | 0.72
4 h | – | 0.09 | 0.24
5 h | – | 0.06 | 0.14
5 min | 11.3 | 31.2 | 27.5
6 h | – | 0.06 | 0.16
8 h | – | 0.02 | 0.05
10 min | 6.52 | 24.3 | 29.8
20 min | 4.01 | 16.1 | 21.9
24 h | – | 0.01 | 0.01
32 h | – | 0.02 | –
